Earlier results as cited in patent US12390432B2, “Methods for treating allan-herndon-dudley syndrome” (PriZm, LLC, priority 2022, dated 2025).

Details: literature report, Groeneweg et al. Lancet Diabetes Endocrinol. 2019; cited from earlier work

O=C(O)Cc1cc(I)c(Oc2ccc(O)c(I)c2)c(I)c1 [TRIAC, triiodothyroacetic acid]
thyroxine (T4) serum levels: significantly reduce
